Paper PMC4240550 (PLoS ONE, 2014)
Values joined by “and” are separate entries in the source; they are usually repeats but may differ in a detail not shown here. Equal entries are not always repeated. Where two headings read alike, the source gives them in different places.

Tests used:
LecB [1] = target: T1, LecB (Pseudomonas aeruginosa, UniProt Q9HYN5); details: ITC; cited from earlier work
LecB [2] = target: T1, LecB; details: for N: ITC stoichiometry; for difference in Kd / binding affinity from the equatorial methyl group: microcalorimetry, vs analog lacking the methyl group (4 vs 5; 3 vs 7)
LecB [3] = target: T1, LecB; assay: biochemical
LecB [4] = target: T1, LecB; assay: biochemical; format: binding; details: IC50, fluorescence polarization, TBS/Ca pH 7.4; mean ± SD of minimum three independent measurements of triplicates
[5] = validation titration of LecB (56.1 µM) with 1 (700 µM)
[6] = 25°C, mean ± SD of minimum three titrations (5: indirect titration with 3, two titrations)
[7] = mean ± SD of minimum three titrations (5: indirect titration with 3, two titrations)

T1 sequence (Q9HYN5 entry or part of it): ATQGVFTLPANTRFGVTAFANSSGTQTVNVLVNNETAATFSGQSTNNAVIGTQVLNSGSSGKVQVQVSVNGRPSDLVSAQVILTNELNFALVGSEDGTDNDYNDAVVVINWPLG

SMILES	-TΔS (LecB [1])	ΔH (LecB [1])	difference in Gibbs energy (LecB [2]; methyl α-L-fucoside (1) compared with 1-deoxy L-fucose (3))	ΔG (LecB [2]; [5])	ΔH (LecB [2]; [5])	Kd (LecB [3])	IC50 (LecB [4])	-TΔS (LecB [2]; [6])	ΔG (LecB [2]; [6])	ΔH (LecB [2]; [6])	N (LecB [2]; [7])	difference in Kd / binding affinity from the equatorial methyl group (LecB [2])	Kd (LecB [1])	ΔG (LecB [1])
CO[C@@H]1O[C@@H](C)[C@@H](O)[C@@H](O)[C@@H]1O [compound 1, methyl α-L-fucoside, reference compound]	1.17 kcal/mol	-9.87 kcal/mol	-0.359 kcal/mol	-8.525 kcal/mol	-9.257 kcal/mol	–	–	–	–	–	–	–	–	–
CO[C@H]1O[C@H](CO)[C@@H](O)[C@H](O)[C@@H]1O [compound 2, methyl α-D-mannoside]	-1.41 kcal/mol	-4.25 kcal/mol	–	–	–	–	–	–	–	–	–	–	–	–
CC1OCC(O)C(O)C1O [compound 3, 1-deoxy L-fucose]	–	–	–	–	–	0.77 ± 0.1 µM	1.6 ± 0.7 µM	0.327 ± 0.263 kcal/mol	-8.34 ± 0.072 kcal/mol	-8.68 ± 0.22 kcal/mol	1.07 ± 0.03	4- to 6 fold	–	–
C[C@@H]1O[C@H](CO)[C@@H](O)[C@H](O)[C@@H]1O [compound 4, β-L-fucopyranosyl methanol]	–	–	–	–	–	16.1 µM	23 µM and 22.9 µM	-0.588 ± 0.335 kcal/mol	-6.57 ± 0.239 kcal/mol	-5.98 ± 0.382 kcal/mol	0.86 ± 0.1	4- to 6 fold	–	–
OC[C@H]1OC[C@@H](O)[C@@H](O)[C@@H]1O [compound 5, 1-deoxy D-mannose]	–	–	–	–	–	69.1 ± 25 µM	104 µM	-1.41 ± 0.382 kcal/mol	-5.69 ± 0.22 kcal/mol	-4.28 ± 0.14 kcal/mol	0.87 ± 0.18	–	–	–
C[C@@H]1O[C@H](C)[C@@H](O)[C@H](O)[C@@H]1O [compound 6, β-L-fucopyranosyl methane]	–	–	–	–	–	16.9 ± 1.9 µM	21 µM and 20.6 µM	-0.308 ± 0.43 kcal/mol	-6.5 ± 0.072 kcal/mol	-6.19 ± 0.382 kcal/mol	0.86 ± 0.2	–	–	–
OC1[C@H](O)COC[C@H]1O [compound 7, 1-deoxy D-arabinose]	–	–	–	–	–	4.46 ± 0.7 µM	9.7 µM and 9.65 µM	1.14 ± 0.574 kcal/mol	-7.29 ± 0.072 kcal/mol	-8.44 ± 0.574 kcal/mol	0.81 ± 0.1	–	–	–
CO[C@@H]1OC[C@@H](O)[C@@H](O)[C@@H]1O [compound 13, methyl β-D-arabinoside]	1.29 kcal/mol	-9.06 kcal/mol	–	–	–	–	3.4 µM	–	–	–	–	–	1.7 µM	-7.89 kcal/mol
